The source made the active and inactive calls. The calls are words filed in the database; no cut-off is given here.
Legend:
[1] = biological target: T1, Sphingosine 1-phosphate receptor 1 (Homo sapiens, UniProt P21453); test: Agonist activity at S1P1 receptor assessed as induction of [35S]GTP-gamma-S binding; format: functional
Homo sapiens [2] = species: Homo sapiens; test: Selectivity for S1P1 receptor over S1P5 receptor
Homo sapiens [3] = species: Homo sapiens; test: Selectivity for S1P1 receptor over S1P2 receptor
Homo sapiens [4] = species: Homo sapiens; test: Selectivity for S1P1 receptor over S1P4 receptor
[5] = biological target: T2, Sphingosine 1-phosphate receptor 3 (Homo sapiens, UniProt Q99500); test: Agonist activity at S1P3 receptor assessed as induction of [35S]GTP-gamma-S binding; format: functional
T2 sequence (Q99500 whole entry): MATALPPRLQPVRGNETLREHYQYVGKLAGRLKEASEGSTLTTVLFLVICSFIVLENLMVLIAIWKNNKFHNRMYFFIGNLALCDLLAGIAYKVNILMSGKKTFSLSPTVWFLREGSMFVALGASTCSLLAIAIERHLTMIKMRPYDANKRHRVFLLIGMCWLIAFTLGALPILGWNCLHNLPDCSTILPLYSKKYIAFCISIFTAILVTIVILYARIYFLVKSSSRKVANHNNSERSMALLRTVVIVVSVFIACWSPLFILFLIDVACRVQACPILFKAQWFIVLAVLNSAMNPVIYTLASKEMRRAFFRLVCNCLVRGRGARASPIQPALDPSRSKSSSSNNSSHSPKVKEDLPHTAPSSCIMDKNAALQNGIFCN

[6] = biological target: T3, Sphingosine 1-phosphate receptor 5 (Homo sapiens, UniProt Q9H228); test: Agonist activity at S1P5 receptor assessed as induction of [35S]GTP-gamma-S binding; format: functional
T3 sequence (Q9H228 whole entry): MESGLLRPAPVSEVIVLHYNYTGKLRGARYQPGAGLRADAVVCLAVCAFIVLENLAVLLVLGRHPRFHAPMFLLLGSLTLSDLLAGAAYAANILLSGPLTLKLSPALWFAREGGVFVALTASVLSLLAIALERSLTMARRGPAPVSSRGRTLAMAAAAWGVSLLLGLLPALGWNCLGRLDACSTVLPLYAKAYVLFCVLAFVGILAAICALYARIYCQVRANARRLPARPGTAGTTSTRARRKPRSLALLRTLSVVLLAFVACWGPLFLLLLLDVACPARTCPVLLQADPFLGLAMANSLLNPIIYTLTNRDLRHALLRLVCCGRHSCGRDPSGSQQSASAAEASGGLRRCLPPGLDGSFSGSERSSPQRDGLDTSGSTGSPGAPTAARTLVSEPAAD

[7] = biological target: T3, Sphingosine 1-phosphate receptor 5; test: Inhibition of S1P5 receptor at 10 uM
[8] = biological target: T2, Sphingosine 1-phosphate receptor 3; test: Inhibition of S1P3 receptor at 10 uM
[9] = biological target: T1, Sphingosine 1-phosphate receptor 1; test: Inhibition of S1P1 receptor at 10 uM
Homo sapiens [10] = species: Homo sapiens; test: Selectivity for S1P1 receptor over S1P3 receptor
Mus musculus = test: Lowering of lymphocytes in mouse at 0.3 mg/kg, po; format: functional, organism-based; design: dose 0.3 mg/kg
[11] = Oral bioavailability in rat; format: ADME, organism-based; details: in vivo
[12] = Half life in rat; format: ADME, organism-based; details: in vivo

T1 sequence (P21453 whole entry): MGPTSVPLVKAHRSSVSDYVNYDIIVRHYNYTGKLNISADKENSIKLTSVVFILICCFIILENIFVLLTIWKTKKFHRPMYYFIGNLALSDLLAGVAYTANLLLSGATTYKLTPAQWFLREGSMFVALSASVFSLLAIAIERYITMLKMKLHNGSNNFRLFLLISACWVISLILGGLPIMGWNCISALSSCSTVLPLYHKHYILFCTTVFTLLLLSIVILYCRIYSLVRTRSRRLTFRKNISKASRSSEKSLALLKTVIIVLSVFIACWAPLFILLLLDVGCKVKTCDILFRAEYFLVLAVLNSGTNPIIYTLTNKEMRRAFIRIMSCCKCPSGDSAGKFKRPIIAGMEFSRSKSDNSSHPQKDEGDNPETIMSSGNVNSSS

| Compound | EC50 [1] | Selectivity ratio (Homo sapiens [2]) | Selectivity ratio (Homo sapiens [3]) | Selectivity ratio (Homo sapiens [4]) | EC50 [5] | EC50 [6] | other results |
| --- | --- | --- | --- | --- | --- | --- | --- |
| Cc1cc(CCC(=O)O)ccc1-c1nc(C)c(-c2ccc(OC(C)C)c(C#N)c2)s1 | > 3.6 µM |  | > 1000 | > 1000 | > 10 µM | > 10 µM |  |
| Cc1cc(CCC(=O)O)ccc1-c1nnc(-c2cnc(OC(C)C)c(Cl)c2)o1 | 0.019 µM |  | > 1000 | > 1000 |  |  | inhibition [7]: 44%; inhibition [8]: 82% |
| Cc1cc(CCC(=O)O)ccc1-c1cc(-c2ccc(OC(C)C)c(C#N)c2)cs1 | 0.29 µM |  | > 1000 | > 1000 | > 10 µM | 3.2 µM |  |
| Cc1cc(CCC(=O)O)ccc1-c1nnc(-c2ccc(OCC(=O)O)c(C#N)c2)s1 | 0.36 µM | 28 | > 1000 | > 1000 |  |  |  |
| Cc1cc(CCC(=O)O)ccc1-c1nnc(-c2ccc(OCC#N)c(C#N)c2)s1 | 0.045 µM | 220 | > 1000 | > 1000 |  |  |  |
| Cc1cc(CCC(=O)O)ccc1-c1csc(-c2ccc(OC(C)C)c(C#N)c2)c1 | 1.2 µM |  | > 1000 | > 1000 | > 10 µM | 3.2 µM |  |
| Cc1cc(CCC(=O)O)ccc1-c1nc(-c2ccc(OC(C)C)c(C#N)c2)n[nH]1 |  |  | > 1000 | > 1000 |  |  |  |
| CC(=O)Oc1ccc(-c2nnc(-c3ccc(CCC(=O)O)cc3C)s2)cc1C#N | 0.094 µM | 110 | > 1000 | > 1000 |  |  |  |
| COc1ccc(-c2nnc(-c3ccc(CCC(=O)O)cc3C)s2)cc1C#N | 0.097 µM | > 100 | > 1000 | > 1000 |  |  |  |
| Cc1cc(CCC(=O)O)ccc1-c1nnc(-c2cccc(C#N)c2)s1 | > 1 µM |  | > 1000 | > 1000 |  |  |  |
| Cc1cc(CCC(=O)O)ccc1-c1ccc(-c2ccc(OC(C)C)c(C#N)c2)o1 | > 10 µM |  | > 1000 | > 1000 | > 10 µM | > 10 µM |  |
| Cc1cc(CCC(=O)O)ccc1-c1nnc(-c2ccc(OC(C)C)c(C#N)c2)n1C | > 10 µM |  | > 1000 | > 1000 | > 10 µM | > 10 µM |  |
| Cc1cc(CCC(=O)O)ccc1-c1ccc(-c2ccc(OC(C)C)c(C#N)c2)n1C | > 10 µM |  | > 1000 | > 1000 | > 10 µM | > 10 µM |  |
| Cc1cc(CCC(=O)O)ccc1-c1csc(-c2cnc(OC(C)C)c(Cl)c2)n1 |  |  | > 1000 | > 1000 |  |  | inhibition [7]: 6%; inhibition [9]: 30%; inhibition [8]: 0% |
| Cc1cc(CCC(=O)O)ccc1-c1coc(-c2cnc(OC(C)C)c(Cl)c2)n1 | 1 µM |  | > 1000 | > 1000 |  |  | inhibition [7]: 0%; inhibition [8]: 8% |
| Cc1cc(CCC(=O)O)ccc1-c1nnc(-c2ccc(OC(C(F)(F)F)C(F)(F)F)c(C#N)c2)s1 | 0.038 µM | 2 | > 1000 | > 1000 |  |  |  |
| Cc1cc(CCC(=O)O)ccc1-c1nnc(-c2ccc(OC(C)C)c(C#N)c2)[nH]1 | 0.38 µM |  |  |  | > 10 µM | > 10 µM |  |
| Cc1cc(CCC(=O)O)ccc1-c1nnc(-c2ccc(F)c(C#N)c2)s1 | 0.57 µM | 18 | > 1000 | > 1000 |  |  |  |

More lines, in order of falling EC50 [1], values ahead:

| EC50 [1] | Selectivity ratio (Homo sapiens [2]) | Selectivity ratio (Homo sapiens [3]) | Selectivity ratio (Homo sapiens [4]) | EC50 [5] | EC50 [6] | Compound | other results |
| --- | --- | --- | --- | --- | --- | --- | --- |
| 0.014 µM |  | > 1000 | > 1000 | > 10 µM | 0.2 µM | Cc1cc(CCC(=O)O)ccc1-c1cnc(-c2ccc(OC(C)C)c(C#N)c2)s1 |  |
| 0.0095 µM | > 100 | > 1000 | > 1000 |  |  | Cc1cc(CCC(=O)O)ccc1-c1nnc(-c2ccc(OCCF)c(C#N)c2)s1 |  |
| 0.0077 µM | 30 | > 1000 | > 1000 |  |  | Cc1cc(CCC(=O)O)ccc1-c1nnc(-c2ccc(OCCC(F)(F)F)c(C#N)c2)s1 |  |
| 0.0051 µM |  | > 1000 | > 1000 | > 10 µM | > 10 µM | Cc1cc(CCC(=O)O)ccc1-c1ncc(-c2ccc(OC(C)C)c(C#N)c2)o1 |  |
| 0.0034 µM | 110 | > 1000 | > 1000 |  |  | CCCOc1ccc(-c2nnc(-c3ccc(CCC(=O)O)cc3C)s2)cc1C#N |  |
| 0.0028 µM | 200 | > 1000 | > 1000 |  |  | Cc1cc(CCC(=O)O)ccc1-c1nnc(-c2ccc(OCC(C)C)c(C#N)c2)s1 |  |
| 0.0021 µM | 480 | > 1000 | > 1000 |  |  | CCOc1ccc(-c2nnc(-c3ccc(CCC(=O)O)cc3C)s2)cc1C#N |  |
| 0.0021 µM |  | > 1000 | > 1000 |  | 1.3 µM | Cc1cc(CCC(=O)O)ccc1-c1nnc(-c2cnc(OC(C)C)c(Cl)c2)s1 | inhibition [8]: 36% |
| 0.0019 µM | 110 | > 1000 | > 1000 |  |  | Cc1cc(CCC(=O)O)ccc1-c1nnc(-c2ccc(-c3cccs3)c(C#N)c2)s1 |  |
| 0.0016 µM |  | > 1000 | > 1000 | > 10 µM | 0.043 µM | Cc1cc(CCC(=O)O)ccc1-c1nnn(-c2ccc(OC(C)C)c(C#N)c2)n1 |  |
| 0.0011 µM | 230 | > 1000 | > 1000 |  |  | Cc1cc(CCC(=O)O)ccc1-c1nnc(-c2ccc(OCC(F)F)c(C#N)c2)s1 |  |
| 0.0011 µM |  | > 1000 | > 1000 | > 10 µM | 0.46 µM | Cc1cc(CCC(=O)O)ccc1-c1nnc(-c2ccc(OC(C)C)c(C#N)c2)o1 |  |
| 0.00098 µM |  | > 1000 | > 1000 | > 10 µM | 0.15 µM | Cc1cc(CCC(=O)O)ccc1-n1nnc(-c2ccc(OC(C)C)c(C#N)c2)n1 |  |
| 0.00093 µM |  | > 1000 | > 1000 | > 10 µM | 0.22 µM | Cc1cc(CCC(=O)O)ccc1-c1ccc(-c2ccc(OC(C)C)c(C#N)c2)s1 |  |
| 0.00079 µM | 170 | > 1000 | > 1000 |  |  | Cc1cc(CCC(=O)O)ccc1-c1nnc(-c2ccc(OC3CCC3)c(C#N)c2)s1 |  |
| 0.00073 µM |  | > 1000 | > 1000 | 0.95 µM | 0.95 µM | Cc1cc(CCC(=O)O)ccc1-c1noc(-c2cnc(OC(C)C)c(Cl)c2)n1 |  |
| 0.00061 µM | 230 | > 1000 | > 1000 |  |  | Cc1cc(CCC(=O)O)ccc1-c1nnc(-c2ccc(OCC3CC3)c(C#N)c2)s1 |  |
| 0.0006 µM | 400 | > 1000 | > 1000 |  |  | Cc1cc(CCC(=O)O)ccc1-c1nnc(-c2ccc(OCC(F)(F)F)c(C#N)c2)s1 |  |
| 0.00028 µM | 120 | > 1000 | > 1000 |  |  | CCC(C)Oc1ccc(-c2nnc(-c3ccc(CCC(=O)O)cc3C)s2)cc1C#N (stereo not drawn) |  |
| 0.00023 µM | 390 | > 1000 | > 1000 |  |  | Cc1cc(CCC(=O)O)ccc1-c1nnc(-c2ccc(OC(CF)CF)c(C#N)c2)s1 |  |
| 0.0002 µM | 210 | > 1000 | > 1000 |  |  | Cc1cc(CCC(=O)O)ccc1-c1nnc(-c2ccc(OC(C)C)c(C#N)c2)s1 |  |
| 0.00018 µM | > 600 | > 1000 | > 1000 | > 10 µM | 0.12 µM | Cc1cc(CCC(=O)O)ccc1-c1ncc(-c2ccc(OC(C)C)c(C#N)c2)s1 | Selectivity ratio (Homo sapiens [10]): > 10000; Activity (Mus musculus): Active; bioavailability [11]: 39%; half-life [12]: < 1 h |
| 0.00016 µM | 320 | > 1000 | > 1000 |  |  | Cc1cc(CCC(=O)O)ccc1-c1nnc(-c2ccc(CC(C)C)c(C#N)c2)s1 |  |
| 0.00015 µM |  | > 1000 | > 1000 | 0.94 µM | 0.073 µM | Cc1cc(CCC(=O)O)ccc1-c1noc(-c2ccc(OC(C)C)c(Cl)c2)n1 |  |
| 0.0001 µM |  | > 1000 | > 1000 | 0.11 µM | 0.013 µM | Cc1cc(CCC(=O)O)ccc1-c1noc(-c2ccc(OC(C)C)c(C#N)c2)n1 |  |
